# Measured values as given in PubChem BioAssay AID210 (DTP/NCI, 2004).
# “And” between values parts separate entries of the source, which are not always exact repeats. Equal values may be shown once. Toxic doses and inconclusive results are not listed. *1 amine or outer side, *2 acyl side, *3 side chain or, on linkers, in order; H or OH if unused. Where a SMILES comes first, the peptide text is derived from it. Bridges are numbered along the chain shown (N, C = ends). Roman numbers before positions name the chains, in order. [ ]: non-standard residue; d: D form. Actinocin(9to1) = Cc1c2oc3c(C)ccc(C(=O)[*:1])c3nc-2c(C(=O)[*:2])c(N)c1=O; aThr = C[C@H](O)[C@H](N)C(=O)O; NMeV = CN[C@H](C(=O)O)C(C)C; Sar = CNCC(=O)O
# Tested on: CD2F1 mice, ip Colon 26 adenocarcinoma, median survival T/C
# Assay: NCI In Vivo Anticancer Drug Screen. Data for tumor model Colon 26 Adenocarcinoma (intraperitoneal) in CD2F1 (CDF1) mice
# Conditions: endpoint: median survival time, higher = longer survival
# Experimental: The antitumor activity of compounds was measured in mice bearing transplantable tumors. Survival or tumor size were measured and the results are expressed as the measurement made in the treated group (T) divided by the measurement made in the vehicle treated control group (C). The tumor model used in this assay is Colon 26 Adenocarcinoma (intraperitoneal) in CD2F1 (CDF1) mice
# [1] = dose: 12.5 mg/kg/injection, schedule: Q04DX003 (ip), vehicle: saline with Tween-80
# [2] = dose: 25.0 mg/kg/injection, schedule: Q04DX003 (ip), vehicle: saline with Tween-80
# [3] = dose: 50.0 mg/kg/injection, schedule: Q04DX003 (ip), vehicle: saline with Tween-80
# [4] = dose: 100.0 mg/kg/injection, schedule: Q04DX003 (ip), vehicle: saline with Tween-80
compound,measurement,setting,value
O=NN(CCCl)C(=O)NC1CCC(=O)NC1=O (configuration not stated),T/C,"dose: 2.8 mg/kg/injection, schedule: Q04DX003 (ip), vehicle: saline with Tween-80",243 % of control
same,T/C,"dose: 5.1 mg/kg/injection, schedule: Q07DX002 (oral), vehicle: saline with Tween-80",179 % of control
same,T/C,"dose: 5.1 mg/kg/injection, schedule: Q07DX003 (oral), vehicle: saline with Tween-80",224 % of control
same,T/C,"dose: 5.1 mg/kg/injection, schedule: Q07DX004 (oral), vehicle: saline with Tween-80",215 % of control
same,T/C,"dose: 5.2 mg/kg/injection, schedule: Q04DX003 (oral), vehicle: saline with Tween-80",269 % of control
same,T/C,"dose: 5.6 mg/kg/injection, schedule: Q04DX003 (ip), vehicle: saline with Tween-80",269 % of control
same,T/C,"dose: 7.7 mg/kg/injection, schedule: Q01DX001 (oral), vehicle: saline with Tween-80",165 % of control
same,T/C,"dose: 7.7 mg/kg/injection, schedule: Q07DX002 (oral), vehicle: saline with Tween-80",204 % of control
same,T/C,"dose: 7.7 mg/kg/injection, schedule: Q07DX003 (oral), vehicle: saline with Tween-80",250 % of control
same,T/C,"dose: 7.7 mg/kg/injection, schedule: Q07DX004 (oral), vehicle: saline with Tween-80",265 % of control
same,T/C,"dose: 8.5 mg/kg/injection, schedule: Q04DX003 (oral), vehicle: saline with Tween-80",280 % of control
same,T/C,"dose: 11.25 mg/kg/injection, schedule: Q04DX003 (ip), vehicle: saline with Tween-80",269 % of control
same,T/C,"dose: 11.5 mg/kg/injection, schedule: Q01DX001 (oral), vehicle: saline with Tween-80",189 % of control
same,T/C,"dose: 11.5 mg/kg/injection, schedule: Q07DX002 (oral), vehicle: saline with Tween-80",251 % of control
same,T/C,"dose: 11.5 mg/kg/injection, schedule: Q07DX003 (oral), vehicle: saline with Tween-80",255 % of control
same,T/C,"dose: 11.5 mg/kg/injection, schedule: Q07DX004 (oral), vehicle: saline with Tween-80",369 % of control
same,T/C,"dose: 13.6 mg/kg/injection, schedule: Q04DX003 (oral), vehicle: saline with Tween-80",307 % of control
same,T/C,"dose: 17.4 mg/kg/injection, schedule: Q01DX001 (oral), vehicle: saline with Tween-80",189 % of control
same,T/C,"dose: 17.4 mg/kg/injection, schedule: Q07DX002 (oral), vehicle: saline with Tween-80",230 % of control
same,T/C,"dose: 17.4 mg/kg/injection, schedule: Q07DX003 (oral), vehicle: saline with Tween-80",369 % of control
same,T/C,"dose: 17.4 mg/kg/injection, schedule: Q07DX004 (oral), vehicle: saline with Tween-80",261 % of control
same,T/C,"dose: 26.0 mg/kg/injection, schedule: Q01DX001 (oral), vehicle: saline with Tween-80",210 % of control
same,T/C,"dose: 26.0 mg/kg/injection, schedule: Q07DX002 (oral), vehicle: saline with Tween-80",405 % of control
same,T/C,"dose: 26.0 mg/kg/injection, schedule: Q07DX003 (oral), vehicle: saline with Tween-80",184 % of control
same,T/C,"dose: 39.0 mg/kg/injection, schedule: Q01DX001 (oral), vehicle: saline with Tween-80",278 % of control
CN(C)/N=N/c1nc[nH]c1C(N)=O,T/C,"dose: 25.0 mg/kg/injection, schedule: Q04DX003 (ip), vehicle: carboxymethylcellulose (CMC)",112 % of control
same,T/C,"dose: 50.0 mg/kg/injection, schedule: Q04DX003 (ip), vehicle: carboxymethylcellulose (CMC)",120 % of control
same,T/C,"dose: 100.0 mg/kg/injection, schedule: Q04DX003 (ip), vehicle: carboxymethylcellulose (CMC)",122 % of control
same,T/C,"dose: 240.0 mg/kg/injection, schedule: Q01DX001 (ip), vehicle: Klucel (hydroxypropylcellulose) (HPC)",95 % of control
same,T/C,"dose: 400.0 mg/kg/injection, schedule: Q01DX001 (ip), vehicle: Klucel (hydroxypropylcellulose) (HPC)",92 % of control
same,T/C,"dose: 400.0 mg/kg/injection, schedule: Q04DX003 (ip), vehicle: carboxymethylcellulose (CMC)",116 % of control
same,T/C,"dose: 600.0 mg/kg/injection, schedule: Q01DX001 (ip), vehicle: Klucel (hydroxypropylcellulose) (HPC)",61 % of control
CCCCCCCC(=O)[O][Hg][CH2]C1COC([CH2][Hg][O]C(=O)CCCCCCC)CO1 (configuration not stated),T/C,[1],95 % of control
same,T/C,[2],90 % of control
CCNCCNc1ccc(NCCNCC)c2c1C(=O)c1ccccc1C2=O,T/C,"dose: 2.0 mg/kg/injection, schedule: Q01DX009 (ip), vehicle: acid diluted with saline",179 % of control
same,T/C,"dose: 4.0 mg/kg/injection, schedule: Q01DX009 (ip), vehicle: acid diluted with saline",189 % of control
same,T/C,"dose: 8.0 mg/kg/injection, schedule: Q01DX009 (ip), vehicle: acid diluted with saline",163 % of control and 166 % of control
same,T/C,"dose: 16.0 mg/kg/injection, schedule: Q01DX009 (ip), vehicle: acid diluted with saline",169 % of control and 177 % of control
COc1cccc2c1C(=O)c1c(O)c3c(c(O)c1C2=O)C[C@@](O)(C(C)=O)C[C@@H]3OC1CC(N(Cc2ccccc2)Cc2ccccc2)C(O)C(C)O1 (some centres not stated),T/C,"dose: 3.0 mg/kg/injection, schedule: Q04DX002 (ip), vehicle: saline with Tween-80",104 % of control
CC/C(=C(/CC)c1ccc(O)cc1)c1ccc(O)cc1,T/C,[2],91 % of control
same,T/C,[3],103 % of control
same,T/C,[4],89 % of control
C[C@@]1(CO)[C@H](O)CC[C@@]2(C)[C@H]1CC[C@H]1C[C@@H]3C[C@@]12CC[C@@]3(O)COC(=O)CN,T/C,"dose: 12.5 mg/kg/injection, schedule: Q01DX009 (ip), vehicle: saline + alcohol",113 % of control
same,T/C,"dose: 25.0 mg/kg/injection, schedule: Q01DX009 (ip), vehicle: saline + alcohol",95 % of control
same,T/C,"dose: 25.0 mg/kg/injection, schedule: Q04DX003 (iv), vehicle: saline",115 % of control
same,T/C,"dose: 50.0 mg/kg/injection, schedule: Q01DX009 (ip), vehicle: saline + alcohol",106 % of control
same,T/C,"dose: 50.0 mg/kg/injection, schedule: Q04DX003 (iv), vehicle: saline",118 % of control
same,T/C,"dose: 75.0 mg/kg/injection, schedule: Q01DX009 (ip), vehicle: saline + alcohol",94 % of control
same,T/C,"dose: 100.0 mg/kg/injection, schedule: Q04DX003 (iv), vehicle: saline",100 % of control
Cc1cc(C)c(-c2cc(O)c(C)cc2O)c(C)c1,T/C,[1],107 % of control
same,T/C,[2],109 % of control
same,T/C,[3],106 % of control
same,T/C,[4],112 % of control
same,T/C,"dose: 200.0 mg/kg/injection, schedule: Q04DX003 (ip), vehicle: saline with Tween-80",112 % of control
"Cc1c2oc3c(C)ccc(C(=O)N[C@@H]4C(=O)N[C@H](C(C)C)C(=O)N5CCC[C@H]5C(=O)N(C)CC(=O)N(C)[C@@H](C(C)C)C(=O)O[C@H]4C)c3nc-2c(C(=O)N[C@@H]2C(=O)N[C@H](C(C)C)C(=O)N3CCC[C@H]3C(=O)N(C)CC(=O)N(C)[C@@H](C(C)C)C(=O)O[C@H]2C)c(N)c1=O (I: [aThr][dV]P[Sar][NMeV] / II: [aThr][dV]P[Sar][NMeV]; ester I:1-I:C, II:1-II:C; linker I:N-II:N via Actinocin(9to1))",T/C,"dose: 0.13 mg/kg/injection, schedule: Q01DX001 (ip), vehicle: saline",92 % of control
same,T/C,"dose: 0.25 mg/kg/injection, schedule: Q01DX001 (ip), vehicle: saline",99 % of control
same,T/C,"dose: 0.5 mg/kg/injection, schedule: Q01DX001 (ip), vehicle: saline",110 % of control
same,T/C,"dose: 1.0 mg/kg/injection, schedule: Q01DX001 (ip), vehicle: saline",107 % of control
same,T/C,"dose: 28.0 micrograms/kg/injection, schedule: Q04DX003 (ip), vehicle: saline",122 % of control
same,T/C,"dose: 125.0 micrograms/kg/injection, schedule: Q01DX001 (ip), vehicle: saline + alcohol",113 % of control
same,T/C,"dose: 180.0 micrograms/kg/injection, schedule: Q04DX003 (ip), vehicle: saline + alcohol",123 % of control
same,T/C,"dose: 216.0 micrograms/kg/injection, schedule: Q04DX003 (ip), vehicle: saline",156 % of control
same,T/C,"dose: 250.0 micrograms/kg/injection, schedule: Q01DX001 (ip), vehicle: saline + alcohol",109 % of control
same,T/C,"dose: 500.0 micrograms/kg/injection, schedule: Q01DX001 (ip), vehicle: saline + alcohol",113 % of control
same,T/C,"dose: 500.0 micrograms/kg/injection, schedule: Q04DX003 (ip), vehicle: saline + alcohol",153 % of control
CC1(CO)C(O)CCC2(C)C1C(O)CC1CC3CC12CCC3(O)CO (configuration not stated),T/C,"dose: 12.5 mg/kg/injection, schedule: Q04DX002 (ip), vehicle: distilled water + Tween-80",120 % of control
same,T/C,"dose: 50.0 mg/kg/injection, schedule: Q04DX002 (ip), vehicle: distilled water + Tween-80",98 % of control
same,T/C,"dose: 100.0 mg/kg/injection, schedule: Q04DX002 (ip), vehicle: distilled water + Tween-80",110 % of control
same,T/C,"dose: 200.0 mg/kg/injection, schedule: Q04DX002 (ip), vehicle: distilled water + Tween-80",103 % of control
COc1ccc(CC2C(=O)NC(C)C(=O)N(C)C3C(=O)N(C)C(Cc4ccc(O)c(c4)Oc4ccc(cc4)C3O)C(=O)NC(C)C(=O)NC(C)C(=O)N2C)cc1 (configuration not stated) (tested in a mixture with another compound),T/C,"dose: 0.5 mg/kg/injection, schedule: Q04DX003 (ip), vehicle: saline",98 % of control
same,T/C,"dose: 1.0 mg/kg/injection, schedule: Q04DX003 (ip), vehicle: saline",98 % of control
same,T/C,"dose: 2.0 mg/kg/injection, schedule: Q04DX003 (ip), vehicle: saline",99 % of control
